For assay [1], the target named is BTK enzyme (recombinant full-length BTK, hBTK) (Homo sapiens (Human), UniProt Q06187). Put plainly: BTK enzymatic activity LANCE TR-FRET assay. In kind it is biochemical. The settings on record: 50 pM hBTK, 25 μM ATP, 2 μM biotin-A5-peptide; compound range 1 μM to 0.017 nM; read-out: BTK binding IC50.
The subject of assay [2] is adenosine uptake into HeLa cells. Put plainly: [3H]Adenosine uptake assay in HeLa cells. The note with it: [3H]adenosine accumulation in HeLa cells, compound range 10 μM to 0.032 nM, read-out: ADU inhibition IC50. In kind it is cell-based. The method in brief:
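IC50 came from a 4-parameter fit of counts per second over a ten-point, 1:3 titration (final 10 µM down to […]). Compound was applied 30 min at ambient temperature in HBSS/5% FBS before a 500 nM [3H]adenosine solution was added; uptake ran 60 min, read by Cytostar-T proximity scintillation.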

Where two headings read alike, the source gives them in different places.

Chain of BTK enzyme (recombinant full-length BTK, hBTK) (Q06187 whole entry): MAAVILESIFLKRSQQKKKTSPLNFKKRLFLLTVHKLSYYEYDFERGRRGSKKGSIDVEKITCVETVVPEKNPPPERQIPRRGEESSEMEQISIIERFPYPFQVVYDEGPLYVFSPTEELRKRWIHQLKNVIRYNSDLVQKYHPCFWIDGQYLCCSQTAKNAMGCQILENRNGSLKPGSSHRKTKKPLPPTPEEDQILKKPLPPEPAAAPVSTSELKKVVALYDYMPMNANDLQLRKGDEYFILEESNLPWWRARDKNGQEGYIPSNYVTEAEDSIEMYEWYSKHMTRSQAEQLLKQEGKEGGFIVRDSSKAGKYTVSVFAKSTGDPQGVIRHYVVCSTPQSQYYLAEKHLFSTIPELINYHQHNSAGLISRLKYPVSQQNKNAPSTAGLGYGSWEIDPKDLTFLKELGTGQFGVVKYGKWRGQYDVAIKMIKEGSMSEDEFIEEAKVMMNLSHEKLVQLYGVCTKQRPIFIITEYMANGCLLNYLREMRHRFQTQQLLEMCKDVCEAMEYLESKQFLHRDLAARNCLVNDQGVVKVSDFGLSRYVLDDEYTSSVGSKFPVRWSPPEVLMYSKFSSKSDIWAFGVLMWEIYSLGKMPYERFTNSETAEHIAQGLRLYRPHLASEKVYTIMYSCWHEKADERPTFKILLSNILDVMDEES

For the compound `C[C@@](O)(c1ccc(-c2nc([C@H]3CN4C(=O)COC[C@@H]4CO3)n3ccnc(N)c23)cc1)c1cccc(C(F)(F)F)c1` [Example 176, (7R,9aR)-7-[8-amino-1-(4-{(1R)-1-hydroxy-1-[3-(trifluoromethyl)phenyl]ethyl}phenyl)imidazo [1,5-a]pyrazin-3-yl]tetrahydro-1H-[1,4]oxazino[3,4-c][1,4]oxazin-4(3H)-one], the IC50 is 7.5 nM in assay [1] and 4270 nM in assay [2] (Homo sapiens, HeLa).
In the case of `CC1(C)CC(=O)N2C[C@H](c3nc(-c4ccc([C@@](C)(O)c5cccc(C(F)F)c5)cc4)c4c(N)nccn34)CC[C@H]21` [Example 177, (6R,8aS)-6-[8-amino-1-(4-{(1R)-1-[3-(difluoromethyl)phenyl]-1-hydroxyethyl}phenyl)imidazo[1,5-a]pyrazin-3-yl]-1,1-dimethylhexahydroindolizin-3(2H)-one], the IC50 worked out at 0.1 nM in assay [1] and 1830 nM in assay [2] (Homo sapiens, HeLa).
For the compound `C[C@@](O)(c1ccc(-c2nc([C@@H]3CC[C@H]4C(C(F)(F)F)CC(=O)N4C3)n3ccnc(N)c23)cc1)c1cccc(C(F)(F)F)c1` (stereo partly drawn) [Example 179, (1R,6R,8aS)-6-[8-amino-1-(4-{(1R)-1-hydroxy-1-[3-(trifluoromethyl)phenyl]ethyl}phenyl)imidazo [1,5-a]pyrazin-3-yl]-1-(trifluoromethyl) hexahydroindolizin-3(2H)-one], the IC50 came out at 3.5 nM in assay [1] and 3300 nM in assay [2] (Homo sapiens, HeLa).
On to `C[C@@](O)(c1ccc(-c2nc([C@@H]3CC[C@H]4C(C(F)(F)F)CC(=O)N4C3)n3ccnc(N)c23)cc1)c1cccc(C(F)(F)F)c1` (stereo partly drawn) [Example 180, (1R,6R,8aS)-6-[8-amino-1-(4-{(1R)-1-hydroxy-1-[3-(trifluoromethyl)phenyl]ethyl}phenyl)imidazo [1,5-a]pyrazin-3-yl]-1-(trifluoromethyl) hexahydroindolizin-3(2H)-one], for which the IC50 in assay [1] was 4.2 nM; in assay [2] it was 2460 nM.
Turning to `CC1(C)C[C@@H]2CC[C@@H](c3nc(-c4ccc([C@@](C)(O)c5cccc(C(F)F)c5)cc4)c4c(N)nccn34)CN2C1=O` [Example 181, (6R,8aS)-6-[8-amino-1-(4-{(1R)-1-[3-(difluoromethyl)phenyl]-1-hydroxyethyl}phenyl)imidazo[1,5-a]pyrazin-3-yl]-2,2-dimethylhexahydroindolizin-3(2H)-one], the IC50 amounted to 0.2 nM in assay [1] and 3620 nM in assay [2] (Homo sapiens, HeLa).
Taken in the same sequence, the figures for `C[C@@](O)(c1ccc(-c2nc([C@@H]3CC[C@H]4C(C(F)(F)F)CC(=O)N4C3)n3ccnc(N)c23)cc1)c1cccc(C(F)F)c1` (stereo partly drawn) [Example 182, (1R,6R,8aS)-6-[8-amino-1-(4-{(1R)-1-[3-(difluoromethyl)phenyl]-1-hydroxyethyl}phenyl)imidazo[1,5-a]pyrazin-3-yl]-1-(trifluoromethyl) hexahydroindolizin-3(2H)-one] were 0.43 nM and 2800 nM.
Regarding `CC(O)(c1cccc(C(F)(F)F)c1)c1ccc(-c2nc([C@@H]3CC[C@H]4CCC(=O)N4C3)n3c(F)cnc(N)c23)c(F)c1` (stereo partly drawn) [Example 183, (6R,8aS)-6-[8-amino-5-fluoro-1-(2-fluoro-4-{1-hydroxy-1-[3-(trifluoromethyl)phenyl]ethyl}phenyl)imidazo [1,5-a]pyrazin-3-yl]hexahydroindolizin-3(2H)-one], the figures for the IC50 in assay [1] and in assay [2] were 324 nM and 561 nM, respectively.
For the compound `C[C@@](O)(c1ccc(-c2nc([C@@H]3CC[C@H]4C(C(F)(F)F)CC(=O)N4C3)n3ccnc(N)c23)cc1)c1cccc(C(F)F)c1` (stereo partly drawn) [Example 184, (1R,6R,8aS)-6-[8-amino-1-(4-{(1R)-1-[3-(difluoromethyl)phenyl]-1-hydroxyethyl}phenyl)imidazo[1,5-a]pyrazin-3-yl]-1-(trifluoromethyl) hexahydroindolizin-3(2H)-one], the IC50 in assay [1] is 1.4 nM; in assay [2] it was 2660 nM.
Take `CC(O)(c1cccc(C(F)(F)F)c1)c1ccc(-c2nc([C@@H]3CC[C@H]4CCC(=O)N4C3)n3c(F)cnc(N)c23)c(F)c1` (stereo partly drawn) [Example 185, (6R,8aS)-6-[8-amino-5-fluoro-1-(2-fluoro-4-{1-hydroxy-1-[3-(trifluoromethyl)phenyl]ethyl}phenyl)imidazo [1,5-a]pyrazin-3-yl]hexahydroindolizin-3(2H)-one]: the figures for the IC50 in assay [1] and in assay [2] were 5 nM and 2390 nM, respectively.
With `CCOc1cc([C@@](C)(O)c2cccc(C(F)(F)F)c2)ccc1-c1nc([C@@H]2CC[C@@H]3N(C2)C(=O)CC3(C)C)n2ccnc(N)c12` [Example 186, (6R,8aS)-6-[8-amino-1-(2-ethoxy-4-{(1S)-1-hydroxy-1-[3-(trifluoromethyl)phenyl]ethyl}phenyl)imidazo [1,5-a]pyrazin-3-yl]-1,1-dimethylhexahydroindolizin-3(2H)-one], the IC50 in assay [1] stood at 1.3 nM; in assay [2] (Homo sapiens, HeLa), 3080 nM.
Take `CC1(C)OC(=O)N2C[C@H](c3nc(-c4ccc([C@@](C)(O)c5cccc(C(F)F)c5)cc4)c4c(N)nccn34)OC[C@H]21` [Example 187, (6R,8aS)-6-[8-amino-1-(4-{(1R)-1-[3-(difluoromethyl)phenyl]-1-hydroxyethyl}phenyl)imidazo[1,5-a]pyrazin-3-yl]-1,1-dimethyltetrahydro-1H-[1,3]oxazolo[4.3-c][1,4]oxazin-3-one]: the IC50 in assay [1] came to 2.8 nM; in assay [2] (Homo sapiens, HeLa) it was 2640 nM.
As for `C[C@@](O)(c1ccc(-c2nc([C@@H]3CC[C@@H]4N(C3)C(=O)CC43CC3)n3ccnc(N)c23)cc1)c1cccc(C(F)(F)F)c1` [Example 188, (6′R,8a′S)-6′-[8-amino-1-(4-{(1R)-1-hydroxy-1-[3-(trifluoromethyl)phenyl]ethyl}phenyl)imidazo [1,5-a]pyrazin-3-yl]tetrahydro-5′H-spiro[cyclopropane-1,1′-indolizin]-3′(2′H)-one], the IC50 came out at 1.2 nM in assay [1] and 2500 nM in assay [2] (Homo sapiens, HeLa).
Taken in the same sequence, the figures for `C[C@@](O)(c1ccc(-c2nc([C@@H]3CC[C@@H]4N(C3)C(=O)CC43CC3)n3ccnc(N)c23)cc1)c1cccc(C(F)F)c1` [Example 189, (6′R,8a′S)-6′-[8-amino-1-(4-{(1R)-1-[3-(difluoromethyl)phenyl]-1-hydroxyethyl}phenyl)imidazo[1,5-a]pyrazin-3-yl]tetrahydro-5′H-spiro[cyclopropane-1,1′-indolizin]-3′(2′H)-one] were 0.17 nM and 2080 nM.
Turning to `CC(O)(c1cccc(C(F)(F)F)c1)c1ccc(-c2nc([C@@H]3CC[C@H]4CCC(=O)N4C3)n3c(Cl)cnc(N)c23)c(F)c1` (stereo partly drawn) [Example 190, (6R,8aS)-6-[8-amino-5-chloro-1-(2-fluoro-4-{1-hydroxy-1-[3-(trifluoromethyl)phenyl]ethyl}phenyl)imidazo [1,5-a]pyrazin-3-yl]hexahydroindolizin-3(2H)-one], the IC50 in assay [1] came out at 310 nM; in assay [2] it was 316 nM.
On the same counts, the results for `CC(O)(c1cccc(C(F)(F)F)c1)c1ccc(-c2nc([C@@H]3CC[C@@H]4N(C3)C(=O)CC4(C)C)n3ccnc(N)c23)c(F)c1` (stereo partly drawn) [Example 191, (6R,8aS)-6-[8-amino-1-(2-fluoro-4-{1-hydroxy-1-[3-(trifluoromethyl)phenyl]ethyl}phenyl)imidazo [1,5-a]pyrazin-3-yl]-1,1-dimethylhexahydroindolizin-3(2H)-one] are 36.9 nM and 431 nM.
`CC(O)(c1cccc(C(F)F)c1)c1ccc(-c2nc([C@@H]3CC[C@H]4CCC(=O)N4C3)n3ccnc(N)c23)c(F)c1` (stereo partly drawn) [Example 192, (6R,8aS)-6-(8-amino-1-(4-{1-[3-(difluoromethyl)phenyl]-1-hydroxyethyl}-2-fluorophenyl)imidazo[1,5-a]pyrazin-3-yl]hexahydroindolizin-3(2H)-one]: the IC50 in assay [1] was 110 nM; in assay [2] it was 522 nM.
For `CC(O)(c1cccc(C(F)(F)F)c1)c1ccc(-c2nc([C@@H]3CC[C@H]4CCC(=O)N4C3)n3c(Cl)cnc(N)c23)c(F)c1` (stereo partly drawn) [Example 193, (6R,8aS)-6-[8-amino-5-chloro-1-(2-fluoro-4-{1-hydroxy-1-[3-(trifluoromethyl)phenyl]ethyl}phenyl)imidazo [1,5-a]pyrazin-3-yl]hexahydroindolizin-3(2H)-one], the IC50 stood at 1.2 nM in assay [1] and 1860 nM in assay [2].
For the compound `CC(O)(c1cccc(C(F)(F)F)c1)c1ccc(-c2nc([C@@H]3CC[C@@H]4N(C3)C(=O)CC4(C)C)n3ccnc(N)c23)c(F)c1` (stereo partly drawn) [Example 194, (6R,8aS)-6-[8-amino-1-(2-fluoro-4-{1-hydroxy-1-[3-(trifluoromethyl)phenyl]ethyl}phenyl)imidazo [1,5-a]pyrazin-3-yl]-1,1-dimethylhexahydroindolizin-3(2H)-one], the IC50 in assay [1] was determined as 1.1 nM; in assay [2], 1300 nM.
On the same counts, the results for `CC(O)(c1cccc(C(F)F)c1)c1ccc(-c2nc([C@@H]3CC[C@H]4CCC(=O)N4C3)n3ccnc(N)c23)c(F)c1` (stereo partly drawn) [Example 195] are 0.33 nM and 3500 nM.
With `CC1(C)C[C@@H]2CC[C@@H](c3nc(-c4ccc(C(C)(O)c5cccc(C(F)(F)F)c5)cc4F)c4c(N)nccn34)CN2C1=O` (stereo partly drawn) [Example 196, (6R,8aS)-6-[8-amino-1-(2-fluoro-4-{1-hydroxy-1-[3-(trifluoromethyl)pheyl]ethyl}phenyl)imidazo [1,5-a)pyrazin-3-yl]-2,2-dimethylhexahydroindolizin-3(2H)-one], the IC50 in assay [1] turned out to be 500 nM; in assay [2], 369 nM.
Turning to `CC1(C)C[C@@H]2CC[C@@H](c3nc(-c4ccc(C(C)(O)c5cccc(C(F)(F)F)c5)cc4F)c4c(N)nccn34)CN2C1=O` (stereo partly drawn) [Example 197, (6R,8aS)-6-[8-amino-1-(2-fluoro-4-{1-hydroxy-1-[3-(trifluoromethyl)phenyl]ethyl}phenyl)imidazo [1,5-a]pyrazin-3-yl]-2,2-dimethylhexahydroindolizin-3(2H)-one], the figures for the IC50 in assay [1] and in assay [2] were 2.5 nM and 3490 nM, respectively.

These data come from patent publication US10214546B2, “Btk inhibitors” (MERCK SHARP & DOHME CORP., priority 2014, dated 2019).
